Measurements reported in patent USRE37314E, “Pyrimidine derivatives” (Shionogi Seiyaku Kabushiki Kaisha, priority 1991, dated 2001).

These compounds were tested against T1, HMG-CoA reductase (Rattus norvegicus, UniProt P51639) (assay: HMG-CoA reductase inhibitory effect (rat liver microsome, [14C]HMG-CoA, TLC/scintillation)). Details: comparative activity, with activity of Mevinolin (sodium salt) as reference drug taken as 100, sodium salt of test compound, 37° C., 30 minutes.
T1 construct: The rat liver microsome sample (100 μl), which was preserved at -80° C; from tissue; host or cells: liver microsomes of Sprague-Dawley rats fed 2% cholestyramine
T1 sequence (P51639 1-887): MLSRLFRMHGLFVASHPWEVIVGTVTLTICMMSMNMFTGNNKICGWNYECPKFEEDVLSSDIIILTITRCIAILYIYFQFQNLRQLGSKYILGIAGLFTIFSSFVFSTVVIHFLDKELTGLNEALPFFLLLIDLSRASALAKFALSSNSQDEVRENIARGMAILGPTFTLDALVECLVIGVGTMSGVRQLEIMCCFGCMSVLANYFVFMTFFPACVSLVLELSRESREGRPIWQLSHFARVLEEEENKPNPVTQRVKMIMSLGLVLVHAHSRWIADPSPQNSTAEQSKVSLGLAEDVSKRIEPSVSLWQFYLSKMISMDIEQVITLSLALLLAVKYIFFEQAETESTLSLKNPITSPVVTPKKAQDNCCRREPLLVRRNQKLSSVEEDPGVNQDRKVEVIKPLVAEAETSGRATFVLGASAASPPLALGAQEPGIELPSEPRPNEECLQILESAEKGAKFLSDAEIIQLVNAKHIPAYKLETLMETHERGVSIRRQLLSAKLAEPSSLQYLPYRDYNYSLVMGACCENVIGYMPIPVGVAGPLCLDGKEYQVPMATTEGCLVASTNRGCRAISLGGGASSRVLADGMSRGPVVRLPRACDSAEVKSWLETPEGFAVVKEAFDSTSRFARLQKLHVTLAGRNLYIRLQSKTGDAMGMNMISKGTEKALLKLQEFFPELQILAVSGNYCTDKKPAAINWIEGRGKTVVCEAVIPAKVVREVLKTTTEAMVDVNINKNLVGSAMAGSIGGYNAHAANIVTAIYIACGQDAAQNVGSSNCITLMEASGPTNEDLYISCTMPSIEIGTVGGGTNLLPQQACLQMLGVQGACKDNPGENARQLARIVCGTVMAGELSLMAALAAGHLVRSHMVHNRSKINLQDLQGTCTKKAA
Format: biochemical
Procedure: The HMG-CoA reductase inhibitory effect
(1) Preparation of rat liver microsome
Sprague-Dawley rats, which were in free access to ordinary dietes containing 2% cholestyramine and water for 2 weeks, were used for the preparation of rat liver microsome. The thus obtained microsome was the purified according to the manner by Juroda et al., Biochem. Biophys. Act, 486, 70 (1977). The microsomal fraction obtained by centrifugation at 105,000×g was washed once with a buffered solution containing 15 mM nicotinamide and 2 mM magnesium chloride (in a 100 mM potassium phosphate buffer, pH 7.4). It was homogenized with a buffer containing nicotinamide and magnesium chloride at the same weight as the liver employed. The thus obtained homogenate was cooled down and kept at -80° C.
(2) Measurement of the HMG-CoA reductase inhibitory activities
The rat liver microsome sample (100 μl), which was preserved at -80° C., was fused at 0° C. and diluted with 0.7 ml of a cold potassium phosphate buffer (100 mM, pH7.4). This was mixed with 0.8 ml of 50 mM EDTA (buffered with the aforementioned potassium phosphate buffer) and 0.4 ml of 100 mM dithiothreitol solution (buffered with the aforementioned potassium phosphate buffer), and the mixture was kept at 0° C. The microsome solution (1.675 ml) was mixed with 670 μl of 25 mM NADPH (buffered with the aformentioned potassium phosphate buffer), and the solution was added to the solution of 0.5 mM [3^-14 ](HMG-CoA (3mCi/mmol). A solution (5 μl) of sodium salt of the test compound dissolved in potassium phosphate buffer is added to 45 μl of the mixture. The resulting mixture was incubated at 37° C. for 30 minutes and cooled. After termination of the reaction by addition of 10 μl of 2N·HCl, the mixture was incubated again at 37° C. for 15 minutes and then 30 μl of this mixture was applied to thin-layer chromatography of silica gel of 0.5 mm in thickness (Merck AG, Art 5744). The chromatograms were developed in toluene/acetone (1/1) and the spot, whose Rf value was between 0.45 to 0.60, were scraped. The obtained products were put into a vial containing 10 ml of scintillator to measure specific radio-activity with scintillation counter.

Point of comparison: `CC(C)c1nc(N(C)S(C)(=O)=O)nc(-c2ccc(F)cc2)c1C=CC(O)CC(O)CC(=O)O` (single isomer, unassigned) [Compound 1a-1], “HMG-CoA reductase inhibitory activities” value 442. Against it:
- CSc1nc(-c2ccc(F)cc2)c(C=CC(O)CC(O)CC(=O)O)c(C(C)C)n1 (centres unmarked) [Compound 1a-3] — lower, 385
- COc1nc(-c2ccc(F)cc2)c(C=CC(O)CC(O)CC(=O)O)c(C(C)C)n1 (centres unmarked) [Compound 1a-5] — lower, 279
- CC(C)c1nc(N(C)NS(C)(=O)=O)nc(-c2ccc(F)cc2)c1C=CC(O)CC(O)CC(=O)O (centres unmarked) [Compound 1a-7] — lower, 260
- CC[C@H](C)C(=O)O[C@H]1C[C@@H](C)C=C2C=C[C@H](C)[C@H](CC[C@@H](O)C[C@@H](O)CC(=O)O)[C@H]21 [Mevinolin Na, Mevinolin, reference compound] — lower, 100
